What was measured:
[1] = tested on: rat ileal mucosal permeability; assay: Intestinal mucosal permeability assay (FD4 clearance, everted gut sacs) after pressure-controlled hemorrhagic shock; assay type: in vivo; settings: intraluminal
Procedure: Intestinal mucosal permeability assay. Animals were allowed access to water but not food for 24 h prior to the experiment in order to decrease the volume of intestinal contents. The rats were instrumented as described above.
A midline laparotomy was performed and the small intestine was exteriorized from the duodenojejunal junction to the ileocecal valve. A small incision was made on the antimesenteric aspect of the proximal small intestine and saline solution (1.5 ml) was injected. The bowel was ligated proximally and distally to the incision with 4-0 silk (LOOK, Reading, Pa.).
The small intestine was compressed gently in aboral direction along its length to displace intestinal contents into the colon. Starting 5 cm from the ileocecal valve, the ileum was partitioned into six contiguous water-tight segments. Each segment was 3 cm long and was bounded proximally and distally by constricting circumferential 4-0 silk sutures. Care was taken to ensure that the vascular supply to intestine was not compromised, and each segment was well-perfused.
Two randomly selected segments in each rat were injected with 0.3 ml of vehicle and served as “no treatment” controls. In order to fill the segments, a small incision was made and the solution was injected using a Teflon catheter (ABBOCATH 16Ga, ABBOTT LABORATORIES).
The remaining four other segments were injected with solutions containing either 4-hydroxy-2,2,6,6-tetramethylpiperidine-N-oxyl (TEMPOL) or one of the Gramicidin S-based compounds. Four different final concentrations of TEMPOL in normal saline were evaluated: 0.1, 1, 5 and 20 mM. The hemigramicidin-based compounds were dissolved in a mixture of dimethylsulfoxide (DMSO) and normal saline (1:99 v/v) and injected at final concentrations of 0.1, 1, 10 or 100 μM.
After the segments were loaded with saline or the test compounds, the bowel was replaced inside the peritoneal cavity and the abdominal incision was temporarily closed using Backhaus forceps.
After a 5 min stabilization period, hemorrhagic shock was induced by withdrawing blood via the jugular catheter. MAP was maintained at 30±3 mm Hg for 2 hours. The shed blood was re-infused as needed to maintain MAP within the desired range.
After 2 h of shock, the animals were euthanized with an intracardiac KCl bolus injection. The ileum was rapidly excised from the ileocecal valve to the most proximal gut segment. The tips of each segment were discarded. In order to assay caspases 3 and 7 activity and phospholipids peroxidation, mucosa samples were collected from gut segments immediately after hemorrhage and stored at −80° C. For permeability measurements, each segment was converted into an everted gut sac, as previously described by Wattanasirichaigoon et al., see Wattanasirichaigoon, S. et al., Effect of mesenteric ischemia and reperfusion or hemorrhagic shock on intestinal mucosal permeability and ATP content in rats, SHOCK, 12:127-133 (1999).
Briefly, as per the Wattanasirichaigoon protocol referenced above, the sacs were prepared in ice-cold modified Krebs-Henseleit bicarbonate buffer (“KHBB”), pH 7.4. One end of the gut segment was ligated with a 4-0 silk suture; the segment was then everted onto a thin plastic rod. The resulting gut sac was mounted on a Teflon catheter (Abbocath 16GA, Abbot Laboratories) connected to a 3 ml plastic syringe containing 1.5 ml of KHBB. The sac was suspended in a beaker containing KHBB plus fluorescein-isothiocyanate labeled dextran (average molecular mass 4 kDa; FD4; 0.1 mg/ml). This solution was maintained at 37° C., and oxygenated by bubbling with a gas mixture (O2 95%/CO2 5%). After 30 min, the fluid within the gut sac was collected. The samples were cleared by centrifugation at 2000 g for 5 min.
Fluorescence of FD4 in the solution inside the beaker and within each gut sac was measured using a fluorescence spectrophotometer (LS-50, PERKIN-ELMER, Palo Alto, Calif.) at an excitation wavelength of 492 nm and an emission wavelength of 515 nm. […]

[2] = tested on: Caco-2BBe human enterocyte-like monolayers; assay: Permeability of Caco-2 monolayers exposed to menadione (FD4 clearance); assay type: cell-based; settings: 10 μM apical, menadione 50 μM, 6 hours
Procedure: Cells. Caco-2BBe human enterocyte-like epithelial cells were obtained from the AMERICAN TYPE CULTURE COLLECTION (Manassas, Va.). Cells were routinely maintained at 37° C. in under a humidified atmosphere containing 8% CO2 in air. The culture medium was DMEM supplemented with 10% FBS, non-essential amino acids supplement (SIGMA-ALDRICH catalogue #M7145), sodium pyruvate (2 mM), streptomycin (0.1 mg/ml), penicillin G (100 U/ml) and human transferrin (0.01 mg/ml). The culture medium was changed 3 times per week.
Measurement of permeability of Caco-2 monolayers. Caco-2BBe cells were plated at a density of 5×10^4 cells/well on permeable filters (0.4 μm pore size) in 12-well bicameral chambers (TRANSWELL, COSTAR, Corning, N.Y.).
Briefly, the medium on the basolateral side was replaced with control medium or medium containing menadione (50 μM final). Medium containing FD4 (25 mg/ml) was applied to the apical chamber. In some cases, one of the gramicidin S-based compounds, XJB-5-131, also was added to the apical side at final concentrations of 0.1, 1, 10 or 100 μM. […] Permeability of the monolayers was expressed as a clearance (pL·h^−1·cm^−2), see Han, X. et al., Proinflammatory cytokines cause NO dependent and independent changes in expression and localization of tight junction proteins in intestinal epithelial cells, SHOCK 19:229-237 (2003). […]

In the case of `CC(C)C[C@@H](/C=C/[C@H](Cc1ccccc1)C(=O)N1CCC[C@H]1C(=O)N[C@H](C(=O)N[C@@H](CCCNC(=O)OCc1ccccc1)C(=O)NC1CC(C)(C)N([O])C(C)(C)C1)C(C)C)NC(=O)OC(C)(C)C` [XJB-5-131], the “lowest effective concentration against ileal mucosal hyperpermeability” value [1] is reported as 1 µM, the “protection against hemorrhagic shock-induced ileal mucosal hyperpermeability” value ([1]; 0.1-100 μM, 2 h shock) is reported as “significantly ameliorated” and the “potency relative to TEMPOL” value ([1]; gut mucosal protection) is reported as about 1000 fold. For the same molecule, the “hemorrhagic shock-induced mucosal hyperpermeability relative to control value” ([1]; control segments loaded with vehicle) was “approximately 60%” and the “protection against menadione-induced hyperpermeability” value [2] was “significant protection”.

Source: US9402839B2, “Selective targeting agents for mitochondria” (University of Pittsburgh—Of the Commonwealth System of …, priority 2006, dated 2016)
